Compound `CCOC(=O)c1cc(CBr)cc(C(=O)OCC)c1` has a melting point of 111 to 113 °C.
Compound `N#Cc1cnc2ccc(-n3cccc3C=O)cc2c1Nc1cccc(Br)c1` has a melting point of 94 to 95 °C.
`COc1ccc(C(=O)c2cc(OC)ccc2O)cc1` showed a melting point of 70 to 72 °C.
In the case of `COC(=O)NC1=NCC(c2ccccc2C)N1C` (stereo not given), the melting point is reported as 158 to 161 °C.
`CC(=O)N(C)c1cnc2ccc(Cl)cc2c1-c1ccccc1` showed a melting point of 268 to 270 °C.
`C#Cc1cnc(C2=NC(C)(C(C)C)C(=O)N2)c(C(=O)O)c1` (stereo not given) showed a melting point of 190 to 195 °C.
For `COc1ccc(CN2Cc3c(-c4noc(C5CC5)n4)ncn3-c3ccc(Cl)cc3C2=O)c(OC)c1`, the melting point was 198 to 205 °C.
`CC(=O)Oc1c(C)c(C)c2c(c1C)CC(CCI)O2` (racemic) gave a melting point of 89 to 90 °C.
In the case of `Cc1ccc2ncnc(N3CCc4ccc(Cl)cc43)c2c1`, the melting point is reported as 138 to 141 °C.
For `Cc1cccc2c1nc(-c1c(F)cccc1F)n2Cc1ccccc1`, the melting point was 112 to 117 °C.
`COc1cc(C(=O)C(Br)CCC2CCCCC2)c(OC)cc1C` (stereo not given) gave a melting point of 75 to 77 °C.
For `O=C1CCC(=O)N1Cn1nnc(-c2ccnc(-c3nnn(CN4C(=O)CCC4=O)n3)c2)n1`, the melting point was 190 to 192 °C.
With `CC12CC3CC(C)(C1)CC(NC(=O)CCl)(C3)C2` the melting point was 107 °C.
With `CCOc1cc(N)c(Cl)cc1C(=O)NC[C@H]1CN(CC2CCN(C(=O)N(C)OC)CC2)CCO1` the melting point was 127 to 129 °C.
For `CCN(CC)C(=O)n1cnc(S(=O)(=O)CC2CCCCCC2)n1`, the melting point was 46 to 51 °C.
In the case of `C[C@H](C(=O)O)c1ccc2cc(OCCCCCCc3cccc(OCc4ccccc4)c3OCc3ccccc3)ccc2c1`, the melting point is reported as 66 to 70 °C.
In the case of `COC(=O)C(C)Oc1ccc(Oc2ccc3cc(Cl)cc(Cl)c3n2)cc1` (stereo not given), the melting point is reported as 70 °C.
`COCCOC(=O)C1=C(C)NC(C)=C(C(=O)OCC(F)(F)F)C1c1cccc([N+](=O)[O-])c1` (stereo not given) gave a melting point of 169 °C.
In the case of `O=Cc1cc(C(=O)c2ccccc2)ccc1[N+](=O)[O-]`, the melting point is reported as 96.7 °C.
Work on `OC(C(c1cccc(Cl)c1)n1ccnc1)C12CC3CC(CC(C3)C1)C2` (stereo not given) yielded a melting point of 115 °C.
Work on `COc1ccccc1SCC1NCCS1` (stereo not given) yielded a melting point of 111 to 112 °C.
`O=C(NCC1(O)CCCCCC1)c1cc(-c2ncc(Cl)cc2C(=O)O)ccc1Cl` showed a melting point of 201 to 204 °C.
In the case of `COc1cc(NC(C)CCCN2C(=O)c3ccccc3C2=O)c2nccc(C=Cc3cccc(C(F)(F)F)c3)c2c1` (stereo not given), the melting point is reported as 154 to 156 °C.
In the case of `CC(C)(C)c1cccc(S(=O)(=O)n2c(Cc3ccc(C(=O)O)s3)cc3cc(C(F)(F)F)ccc32)c1`, the melting point is reported as 110 °C.
`CSc1c(C(Cc2ccc(F)cc2)C(=O)O)ccc2c3ccccc3n(Cc3ccc(F)cc3)c12` (stereo not given) gave a melting point of 90 to 94 °C.
`COCCCc1ccc(C#CC2(O)CN3CCC2CC3)cc1` (stereo not given) gave a melting point of 145 °C.
Work on `O=C1c2ccc(F)cc2C(=O)N1c1cc([N+](=O)[O-])c(Cl)cc1F` yielded a melting point of 162 to 163 °C.
With `Nc1ccc(CCC(=O)N(c2ccccc2)c2ccccc2)cc1[N+](=O)[O-]` the melting point was 189 to 190 °C.
In the case of `CCCC1=C(C#N)C(c2ccccc2Cl)c2c(n[nH]c2CC(OC)OC)N1` (stereo not given), the melting point is reported as 180 °C.
`COc1ccc(-c2c(CO)c(C)nc3cc(OC)c(OC)cc23)cc1OC` showed a melting point of 200 to 201 °C.
In the case of `CC(C)NCC1CCN(c2nc3c(cc2F)c(=O)c(C(=O)O)cn3C2CC2)C1` (stereo not given), the melting point is reported as 240 to 243 °C.
In the case of `O=C(O)CCCCc1nc(NCc2ccc3c(c2)OCO3)c2cc(Cl)sc2n1`, the melting point is reported as 130 °C.
With `CCc1nc(CC)c(CO)c(-c2ccccc2)c1C=C(C)C` the melting point was 103 to 104 °C.
`Cc1cn(COCCI)c(=O)[nH]c1=O` gave a melting point of 112 to 115 °C.
Compound `CC1(C)CC2(CC(C)(C)N1c1nc(Cl)nc(Cl)n1)OCCO2` has a melting point of 169 to 172 °C.
In the case of `CN(C)c1ccc(C(NCCO)C(O)c2ccccc2)cc1` (stereo not given), the melting point is reported as 147 to 148 °C.
In the case of `CN(C)C=C1CN=C(c2ccccc2Cl)c2ccccc2C1=O`, the melting point is reported as 155 to 157 °C.
Work on `CCOc1cc(OCCCc2cn(-c3ccc(C(F)(F)F)cn3)nc2C)ccc1CCC(=O)O` yielded a melting point of 129 to 130 °C.
With `CCCc1nc2c(N)nc(C)c(C)c2n1CCCCCS(=O)(=O)c1ccc(F)cc1` the melting point was 130 to 132 °C.
Work on `OCCCCOc1ccc2cc(Nc3ccc(O)cc3)ccc2c1` yielded a melting point of 132 to 135 °C.
`C=CCCCCCCCCC(=O)OC1CCC2C3CCC4=CC(=O)CCC4C3CCC12CC` (stereo not given) showed a melting point of 87 to 88 °C.
With `CCN(CC)Cc1cc(NC(=O)Nc2ccc(Oc3cc(NC)ncn3)cc2)cc(C(F)(F)F)c1` the melting point was 68 to 70 °C.
Work on `Cc1cccc(CSCCNC(=O)c2c(Cl)cccc2Cl)c1` yielded a melting point of 56 to 57 °C.
In the case of `O=c1ccoc2cc(O)ccc12`, the melting point is reported as 136 to 137 °C.
With `COC(=O)c1ccc(F)c2c1CC(N(CCCCc1c[nH]c3ccc(F)cc13)C1CCC1)CO2` (stereo not given) the melting point was 115 °C.
With `CC(C)OC(=O)Cn1c(=O)n(C)c(=O)n(-c2cc(N=c3oc(=O)n4n3CCCC4)c(F)cc2Cl)c1=O` the melting point was 115 to 120 °C.
In the case of `CN(C(=O)OC(C)(C)C)c1ccc(C#CCCCOS(C)(=O)=O)cc1`, the melting point is reported as 85 to 87 °C.
In the case of `CCC(C)(Cc1c[nH]c2ccccc12)[N+](=O)[O-]` (stereo not given), the melting point is reported as 79.5 to 80 °C.
Compound `O=C(CNC(=O)C(Cc1ccccc1)NC(=O)C1CCCN1)Oc1c(Cl)c(Cl)c(Cl)c(Cl)c1Cl` (stereo not given) has a melting point of 182 to 184 °C.
For `Cc1cccc(N2CCCCC2)c1NC(N)=S`, the melting point was 197 to 198 °C.
`FC(F)(F)c1ccccc1N=C1CCCc2cc3c(nc21)C(=Nc1ccccc1C(F)(F)F)CCC3` showed a melting point of 162 to 164 °C.
In the case of `O=C(Nc1cccc(Cl)c1)N1CCc2cc(S(=O)(=O)N3CCN(c4cccc(Cl)c4)CC3)ccc21`, the melting point is reported as 190 °C.
In the case of `CC(=O)c1cc(C(=O)OCc2ccco2)c(C2=NC(C)(C(C)C)C(=O)N2)nc1C` (stereo not given), the melting point is reported as 133 to 136 °C.
For `CCN(CC)CCNC(=O)c1cc(N(C)S(C)(=O)=O)ccc1OC`, the melting point was 48 to 50 °C.
With `O=c1[nH]c2ncc(-c3ccc(O)cc3)nc2n1CC1CCCN1` (stereo not given) the melting point was 178 to 180 °C.
In the case of `COc1ccccc1COc1ccc(S(=O)(=O)c2ccc(C)nc2Nc2c(C)cc(C)cc2C)cc1`, the melting point is reported as 148 to 150 °C.
For `CCOC(=O)COc1ccc2cc(-c3cc4ccccc4s3)ccc2c1Br`, the melting point was 178 to 181 °C.
In the case of `COC1(OCc2ccccc2)C=C2C(=CC1)CCN(CCO)C2C1(c2ccccc2Cl)CC1` (stereo not given), the melting point is reported as 65 to 70 °C.
With `O=Cc1ccc2c(c1)c1ccccc1n2CCCCCCCCCCn1c2ccccc2c2cc(C=O)ccc21` the melting point was 122 °C.
In the case of `CCN1CC[C@@H]2CC(=O)c3cc(F)ccc3[C@@H]2C1` (relative stereo), the melting point is reported as > 220 °C.
Compound `CN1C(=O)CC[C@]2(C)c3ccc(CCc4ccccc4)cc3CC[C@@H]12` has a melting point of 109 to 111 °C.
`N#Cc1c(-c2ccc(Cl)cc2)c(-c2ccc(Cl)cc2)nn(CCO)c1=O` gave a melting point of 122 to 123 °C.
`CCN(Cc1cc(Br)ccc1N)c1ccc(C(N)=O)nn1` showed a melting point of 208 to 210 °C.
Compound `Cn1c(-c2cccs2)n[nH]c1=O` has a melting point of 183 to 185 °C.
`NNC(=O)C[C@H](O)COCc1ccccc1` gave a melting point of 96.9 °C.
`CCCCn1nnc(-c2ccc(C(=O)NCC3CCCC3(C)C)cc2)n1` (stereo not given) showed a melting point of 121 to 123 °C.
For `Cc1nc[nH]c(=O)c1Cc1ccccc1`, the melting point was 140 to 142 °C.
With `CCCCc1nnc(SC)n1Cc1ccc(-c2ccccc2-c2nnn[nH]2)cc1` the melting point was 100 to 102 °C.
`Cc1cc(I)cc(C(=O)O)c1N` gave a melting point of 214 °C.
With `CC(=O)c1ccc(-c2ccc(C(=O)NCCCCN3CCC(c4ccc5c(c4O)CCCC5)CC3)cc2)cc1` the melting point was 180 to 185 °C.
